Values after ≈ are worked out from the molar mass of the structure shown.
settings: buffer; pH 7.4; 200.0 µM

Row | Compound | solubility kinetic [µg/mL]
1 | CC(=O)N1CCC(N(C(=O)Nc2ccc(Cl)cc2)C(C)C)CC1 | > 50.7
2 | CCN1CCN(Cc2cc(=O)oc3ccc(C)cc23)CC1 | > 43
3 | COc1cccc2cc(C(=O)NCCN3CCOCC3)c(=O)oc12 | > 49.9
4 | Cc1cc(Br)ccc1NC(=O)c1ccco1 | > 42
5 | CN1CCSc2ccc(C(=O)Nc3cccc(F)c3)cc21 | 1.4 (≈ 4.63 µM)
6 | CC(C)Cn1c(SCC(=O)Nc2ccc(Cl)cc2F)nc(O)cc1=O | > 57.9
7 | CSc1nnc(C)c(=O)n1COC(=O)/C=C/c1ccccc1 | > 47.6
8 | Cc1ccccc1NC(=O)CN1CCN(Cc2ccccc2)CC1 | 44.3 (≈ 137 µM)
9 | O=c1c2ccccc2nc(-c2ccccc2)n1O | > 35.7
10 | O=C1NC2(CCCCCC2)C(=O)N1Cc1ccccc1Cl | 6.8 (≈ 22.2 µM)
11 | Cc1cccc(NC(=O)C2CCCN(c3cnccn3)C2)c1 (stereo unspecified) | 27.2 (≈ 91.8 µM)
12 | COc1ccc(CNC(=O)CCn2c(=O)[nH]c3ccccc3c2=O)cc1 | 2.9 (≈ 8.21 µM)
13 | O=C(CN1C(=O)C2CC=CCC2C1=O)N1CCN(S(=O)(=O)c2ccccc2)CC1 (stereo unspecified) | > 62.6
14 | CCCn1c(SCC(=O)N2CCOCC2)nnc1-c1ccncc1 | > 52.1
15 | O=[N+]([O-])c1ccccc1S(=O)(=O)N1CCN(c2ccccn2)CC1 | 4.1 (≈ 11.8 µM)
16 | Cc1cc(NC(=O)CSc2nc3c(C)c(C)ccc3cc2C)no1 | < 0.2
17 | O=S(=O)(Nc1ccccc1N1CCCCC1)c1ccc(F)cc1 | 2.5 (≈ 7.48 µM)
18 | CCCN1CCN(CCNC(=O)Nc2ccccc2Cl)CC1 | > 48.7
19 | Cc1ccc(Cl)cc1NC(=O)CC1NC2CCCCC2NC1=O (stereo unspecified) | 38.6 (≈ 115 µM)
20 | Cc1ccc(C)c(S(=O)(=O)NCCCc2ccccc2)c1 | 14.2 (≈ 46.8 µM)
21 | CC(=O)N1CCN(C(=O)c2cc3c(s2)CCCC3)CC1 | > 43.9

Row | Compound | solubility kinetic [µg/mL]
22 | Cn1c(=NC(=O)c2cccc([N+](=O)[O-])c2)sc2ccccc21 | < 0.2
23 | CC1(C(=O)O)CCC(C(N)=O)C1(C)C (stereo unspecified) | > 29.9
24 | CC(=O)Oc1ccc2c(=O)c(-c3nc4ccccc4s3)coc2c1 | 1 (≈ 2.96 µM)
25 | Cl.N=c1ccn(Cc2ccc([N+](=O)[O-])cc2)cc1 | > 39.9
26 | COc1ccc(N2C(=O)C(F)(F)C2c2cccc(F)c2)cc1 (stereo unspecified) | < 0.7
27 | CCCS(=O)(=O)C/C(N)=N/OC(=O)c1ccc(Cl)cc1 | 34.3 (≈ 108 µM)
28 | CC(C)c1ccc(NC(=O)C2CC3CCC2C3)cc1 (stereo unspecified) | 2.1 (≈ 8.16 µM)
29 | CCC(Cc1ccccc1)NC(=O)C1CCCCC1 (stereo unspecified) | 11.6 (≈ 44.7 µM)
30 | O=C(NC1CCN(S(=O)(=O)c2ccc(F)cc2)CC1)c1ccco1 | 17.5 (≈ 49.7 µM)
31 | N#C/C(C(N)=O)=C1/CCCN1Cc1ccccc1 | > 36.2
32 | S=C(Nc1cccc(Cl)c1Cl)N1CCCC1 | 15.7 (≈ 57 µM)
33 | Cc1cc(=O)oc2cc(OCC(=O)N3c4ccccc4NC(=O)C3(C)C)ccc12 | 17.3 (≈ 44.1 µM)
34 | O=S(=O)(NCCN1CCCC1)c1ccc(Br)cc1 | 46.9 (≈ 141 µM)
35 | CCCSc1nc2ccccc2n1CC(=O)O | > 37.5
36 | Nc1c(C(=O)C2CC2)sc2nc3c(cc12)CCC3 | 2.2 (≈ 8.52 µM)
37 | CCC(C)Nc1nc(N)c([N+](=O)[O-])c(NCc2ccccc2)n1 (stereo unspecified) | 3.6 (≈ 11.4 µM)
38 | O=C(Nc1ccc(F)cc1)Nc1cccnc1 | > 34.7
39 | COc1ccccc1CN(C)C(=O)c1cc(C)nc2ccccc12 | > 48.1
40 | COC(=O)CCc1nc2ccccc2nc1OC | > 36.9
41 | Cc1nn(CC(=O)NC2CCC(C)CC2)c(=O)c(C#N)c1C (stereo unspecified) | > 45.4
42 | Cc1cccc(N2CCN(C(=O)c3cccs3)CC2)c1C | 23.8 (≈ 79.2 µM)

Row | Compound | solubility kinetic [µg/mL]
43 | CCc1cccc(OC2OC(CO)C(O)C(O)C2NC(C)=O)c1 (stereo unspecified) | > 48.8
44 | Cc1cnc(NC(=O)c2cc(S(=O)(=O)N(C)C)ccc2N2CCCC2)s1 | 4.7 (≈ 11.9 µM)
45 | O/N=C\c1ccccc1Oc1ccc(F)cc1 | 32.3 (≈ 140 µM)
46 | Cc1ccc(CNC(=O)CSc2nc3ccccc3[nH]2)cc1 | 31.1 (≈ 99.9 µM)
47 | COc1ccc(C(=O)O/N=C2\CCS(=O)(=O)c3sccc32)cc1 | < 0.8
48 | O=C(OCC(=O)N1CCOCC1)c1ccc(Cl)cc1[N+](=O)[O-] | 48.3 (≈ 147 µM)
49 | CN(Cc1ccc(F)cc1)C(=O)c1ccc2c(c1)NC(=O)CS2 | > 49.6
50 | O=CN1CCN(C(=O)c2cccc([N+](=O)[O-])c2)CC1 | > 39.5
51 | O=C(Nc1ccccc1)Nc1cccc2nsnc12 | 5.7 (≈ 21.1 µM)
52 | Cc1cc(C)cc(OCCCn2ccnc2)c1 | 26.4 (≈ 115 µM)
53 | CCC(=O)Nc1ccc2c(c1)nc(CCN1CCC(C)CC1)n2C | > 49.3
54 | COc1ccc(OC)c(S(=O)(=O)Nc2cc(C)on2)c1 | > 44.7
55 | CCC1CCc2c(sc(NC(=O)c3cnccn3)c2C(N)=O)C1 (stereo unspecified) | 1.8 (≈ 5.45 µM)
56 | CCc1ccc(C(C)NC(=O)C2CCCO2)cc1 (stereo unspecified) | 34.9 (≈ 141 µM)
57 | NC(=O)Nc1ccc(C(=O)OCC(=O)Nc2ccc(Cl)cn2)cc1 | 5.1 (≈ 14.6 µM)
58 | CCc1nc2ccc(C(=O)N3CCN(CC)CC3)cc2nc1CC | 48.6 (≈ 149 µM)
59 | Cc1cc(SCC(=O)N2CCCC2=O)nc2c(C)cccc12 | 2.3 (≈ 7.32 µM)
60 | Fc1cccc(CN2CCC(Cc3ccccc3)CC2)c1 | 13.5 (≈ 47.6 µM)
61 | O=C(N/N=C/c1cccnc1)c1ccccc1Br | > 45.6

Source: PubChem BioAssay AID1996
